# Assay results taken from patent US5827871A, “Medicaments 1,2,3,4-tetrahydrocarbazoles and 5-HT1 agonist use thereof” (priority 1991, dated 1998).
# pEC50: −log10 of the molar value. Where a name gives a salt, the structure may show the parent alone.
# Target: 5-HT1-like receptor (Canis lupus familiaris, UniProt P79250)
# Assay: 5-HT1-like receptor screen, dog saphenous vein contraction
# Settings: contraction of dog saphenous vein helicoids, 37° C., in presence of ketanserin, prazosin, atropine, mepyramine, cocaine and ascorbate; EC50 estimated from concentration-effect curve
# Procedure: 5-HT1 -like Receptor Screen
# Helicoids of dog saphenous vein were set up at 37° C. in modified Krebs solution at a resting force of 10 mN. The solution also contained 1 μmol/l each of ketanserin prazosin, atropine and mepyramine, 6 μmol/l cocaine and 200 μmol/l ascorbate. Nearly […] contractions were measured with force transducers on a polygraph. The tissues were exposed twice to 5-hydroxytryptamine (5-HT) 2 μmol/l followed by washes. A cumulative concentration-effect curve was determined, followed by a curve to 5-HT in the presence of the highest used concentration of test compound. Contractions caused by the test compound were compared with those caused by 5-HT. The intrinsic activity of the test compound was calculated as the ratio of the maximum test compound-induced effect over the effect caused by 2 μmol/l 5-HT. The EC50 of the test compound was estimated from the corresponding effect curve. When appropriate equilibrium dissociation constants Kp were estimated by the method of Marano & Kaumann (1976, J. Pharmacol. Exp. Ther. 198, 518-525).
# 5-HT1-like receptor (Canis lupus familiaris, UniProt P79250), sequence (P79250 whole entry): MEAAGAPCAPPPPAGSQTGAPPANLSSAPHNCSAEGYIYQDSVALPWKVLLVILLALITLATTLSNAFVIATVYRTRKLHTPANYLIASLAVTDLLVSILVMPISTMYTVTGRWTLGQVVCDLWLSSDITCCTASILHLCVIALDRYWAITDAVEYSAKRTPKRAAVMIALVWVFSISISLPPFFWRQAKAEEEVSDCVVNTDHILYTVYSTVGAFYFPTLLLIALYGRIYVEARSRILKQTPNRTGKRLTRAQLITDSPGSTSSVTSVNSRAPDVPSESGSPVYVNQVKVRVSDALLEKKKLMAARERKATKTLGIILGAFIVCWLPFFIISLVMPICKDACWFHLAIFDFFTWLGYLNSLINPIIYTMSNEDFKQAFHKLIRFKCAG
row,pEC50,SMILES
1,4.82 to 7.00,"CNC1CCc2[nH]c3ccc(C(N)=O)cc3c2C1 (stereo not shown) [Example 24, 3-Methylamino-6-carboxamido-1,2,3,4-tetrahydrocarbazole hydrochloride]"
2,4.82 to 7.00,"CC(=O)Nc1ccc2[nH]c3c(c2c1)CC(N)CC3 (stereo not shown) [Example 21, 3-Amino-6-(acetamido)-1,2,3,4-tetrahydrocarbazole oxalate]"
3,4.82 to 7.00,"N#CCc1ccc2[nH]c3c(c2c1)CC(N)CC3 (stereo not shown) [Example 10, 3-Amino-6-cyanomethyl-1,2,3,4-tetrahydrocarbazole oxalate]"
4,4.82 to 7.00,"CNS(=O)(=O)Cc1ccc2[nH]c3c(c2c1)CC(N)CC3 (stereo not shown) [Example 11, 3-Amino-6-(N-methylsulphonamidomethyl)-1,2,3,4-tetrahydrocarbazole oxalate]"

# Target: T1, 5-HT1-like receptor (Oryctolagus cuniculus, UniProt P49144)
# T1 construct: from tissue; host or cells: rabbit basilar artery (endothelium-denuded ring segments)
# Assay: 5-HT1-like receptor screen, rabbit isolated basilar artery contraction
# Settings: isometric tension of endothelium-denuded rabbit basilar artery rings, in presence of ascorbate, indomethacin, cocaine, ketanserin and prazosin
# Procedure: Experiments were performed in intracranial arteries from rabbit isolated basilar artery in a similar method to one described previously (Parsons and Whalley, 1989. Eur J Pharmacol 174, 189-196.).
# In brief, rabbits were killed by overdose with anaesthetic (sodium pentobarbitone). The whole brain was quickly removed and immersed in ice cold modified Kreb's solution and the basilar artery removed with the aid of a dissecting microscope. The Krebs solution was of the following composition (mM) Na^+ (120); K^+ (5); Ca^2+ (2.25); Mg^2+ (0.5); Cl^- (98.5); SO4^2- (1); EDTA (0.04), equilibrated with 95% O2 /5% CO2. The endothelium was removed by a gentle rubbing of the lumen with a fine metal wire. Arteries were then cut into ring segments (ca 4-5 mm wide) and set up for recording of isometric tension in 50 ml tissue baths in modified Krebs solution with the additional supplement of (mM); […] (20); fumarate (10); pyruvate (5); L-glutamate (5) and glucose (10). The arteries were then placed under a resting force of 3-4 mN maintained at 37° C. and the solution bubbled with 95% O2 /5% CO2.
# After tests for initial reactivity with 90 mM KCl depolarising solution and for lack of acetylcholine-induced relaxation of 5-HT ([…]) precontraction, cumulative concentration-effect curves ([…]) to 5-HT were constructed in the presence of ascorbate […], cocaine […], indomethacin […], ketanserin […] and prazosin […].
# Following a 45-60 min wash period, cumulative concentration-effect curves to the test compounds or 5-HT (as a time match control) were constructed in the presence of ascorbate, indomethacin, cocaine, ketanserin and prazosin.
# T1 sequence (P49144 whole entry): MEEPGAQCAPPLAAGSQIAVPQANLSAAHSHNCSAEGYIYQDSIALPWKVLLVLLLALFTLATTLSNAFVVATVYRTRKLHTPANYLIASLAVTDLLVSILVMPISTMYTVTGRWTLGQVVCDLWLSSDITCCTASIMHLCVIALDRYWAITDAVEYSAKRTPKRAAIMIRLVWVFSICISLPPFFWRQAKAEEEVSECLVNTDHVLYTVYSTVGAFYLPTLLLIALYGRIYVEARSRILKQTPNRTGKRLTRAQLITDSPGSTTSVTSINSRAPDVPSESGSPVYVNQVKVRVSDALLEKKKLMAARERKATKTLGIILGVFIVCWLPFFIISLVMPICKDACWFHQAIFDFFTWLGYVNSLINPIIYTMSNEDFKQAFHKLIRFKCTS
row,pEC50,SMILES
1,4.82 to 7.40,"NC(=O)c1ccc2[nH]c3c(c2c1)CC(NCc1ccccc1)CC3 (stereo not shown) [Example 29, 3-Benzylamino-6-carboxamido-1,2,3,4-tetrahydrocarbazole oxalate]"
2,4.82 to 7.40,"CNC1CCc2[nH]c3ccc(C(N)=O)cc3c2C1 (stereo not shown) [Example 24, 3-Methylamino-6-carboxamido-1,2,3,4-tetrahydrocarbazole hydrochloride]"
3,4.82 to 7.40,"NC1CCc2[nH]c3ccc(S(N)(=O)=O)cc3c2C1 (stereo not shown) [Example 15, 3-Amino-6-sulphonamido-1,2,3,4-tetrahydrocarbazole oxalate]"
